Source: US7498343B2, “Mycobacterial inhibitors” (priority 2002, dated 2009)

Legend:
[1] = tested on: M. Smegmatis ATCC607; experiment: In-vitro method for testing compounds for anti-bacterial activity against strain M. smegmatis ATCC607 (Alamar Blue growth inhibition); format: cell-based; details: M. smegmatis ATCC607; pIC50 = -logIC50, IC50 in M, 50% inhibitory concentration for bacterial growth; 48 hours incubation
Protocol: C.2. In-vitro Method for Testing Compounds for Anti-bacterial Activity Against Strain M. Smegmatis ATCC607. […] Subsequently, stock solutions (7.8×final test concentration) of compounds were added in 45 μl volumes to a series of duplicate wells in column 2 so as to allow evaluation of their effects on bacterial growth. Serial five-fold dilutions (45 μl in 180 μl) were made directly in the microtiter plates from column 2 to 11 using a customised robot system (Zymark Corp., Hopkinton, Mass.). Pipette tips were changed after every 3 dilutions to minimize pipetting errors with high hydrophobic compounds. Untreated control samples with (column 1) and without (column 12) inoculum were included in each microtiter plate. Approximately 250 CFU per well of bacteria inoculum, in a volume of 100 μl in 2.8×Mueller-Hinton broth medium, was added to the rows […]. The same volume of broth medium without inoculum was added to column 12 in row A to H. The cultures were incubated at 37° C. for 48 hours in a humidified 5% CO2 atmosphere (incubator with open air valve and continuous ventilation). At the end of incubation, two days after inoculation, the bacterial growth was quantitated fluorometrically. Therefore Alamar Blue (10×) was added to all wells in a volume of 20 μl and plates were incubated for another 2 hours at […] The fluorescence was read in a computer-controlled fluorometer (Cytofluor, Biosearch) at an excitation wavelength of 530 nm and an emission wavelength of 590 nm (gain 30). The % growth inhibition achieved by the compounds was calculated according to standard methods.

[2] = tested on: Mycobacterium tuberculosis (strain H37RV); experiment: In-vitro method for testing compounds against M. tuberculosis (resazurin growth inhibition, MIC); format: cell-based; details: MIC data representing IC90's, 7 days incubation, resazurin fluorescence

Row | Structure (SMILES) | pIC50 [1] | MIC [2] [microgram/ml]
1 | COc1nc2ccc(Br)cc2cc1C(c1ccccc1)C(O)(CC[N+](C)(C)[O-])c1cccc2ccccc12 (single isomer, unassigned) [Compound 100] | 7.1 | 45.40
2 | COc1nc2ccc(Br)cc2cc1C(c1ccccc1)C(O)(CC[N+](C)(C)C)c1cccc2ccccc12.[I-] (single isomer, unassigned) [Compound 102] | 6.5 | 2.21
3 | CN(C)CCC(O)(c1ccccc1)C(c1ccccc1)c1cc2cc(Br)ccc2n(C)c1=O (single isomer, unassigned) [Compound 106] | 6.2 | 55.55
4 | CN(C)CCC(O)(c1ccccc1)C(c1ccccc1)c1cc2cc(Br)ccc2n(C)c1=O (single isomer, unassigned) [Compound 107] | 5.8 | 44.13
5 | COc1nc2ccc(Cl)cc2cc1C(c1ccccc1)C(O)(CCN(C)C)c1cccc2ccccc12 (single isomer, unassigned) [Compound 119] | 7.8 | 10.20
6 | COc1nc2ccc(Cl)cc2cc1C(c1ccccc1)C(O)(CCN(C)C)c1cccc2ccccc12 (single isomer, unassigned) [Compound 120] | 5.9 | 40.60
7 | COc1nc2ccc(Br)cc2cc1C(c1ccccc1)C(O)(CC[N+](C)(C)C)c1cccc2ccccc12.[I-] (single isomer, unassigned) [Compound 121] | 5.9 | 2.21
8 | COc1nc2ccc(Br)cc2cc1C(c1ccccc1)C(O)(CCN(C)C)c1ccc2c3c(cccc13)CC2 (single isomer, unassigned) [Compound 122] | 4.8 | 58.16
9 | COc1nc2ccc(Br)cc2cc1C(c1ccccc1)C(O)(CCCN(C)C)c1ccc2ccccc2c1 (single isomer, unassigned) [Compound 125] | 4.4 | 18.01
10 | COc1nc2ccc(Br)cc2cc1C(c1ccccc1)C(O)(CCCN(C)C)c1ccc2ccccc2c1 (single isomer, unassigned) [Compound 126] | 5.2 | 56.96
11 | COc1nc2ccc(Br)cc2cc1C(c1ccccc1)C(O)(CCN(C)C)c1ccc2c(Br)cccc2c1 (single isomer, unassigned) [Compound 127] | 6.9 | 25.26
12 | COc1nc2ccc(Br)cc2cc1C(c1ccccc1)C(O)(CCN(C)C)c1ccc2c(Br)cccc2c1 (single isomer, unassigned) [Compound 130] | 5.3 | 50.32
13 | COc1nc2ccc(Br)cc2cc1C(c1ccccc1)C(O)(CCN(C)C)c1cccc2c1CCCC2 (single isomer, unassigned) [Compound 131] | 6.9 | 44.45
14 | COc1nc2ccc(Br)cc2cc1C(c1ccccc1)C(O)(CCCN1CCCC1)c1ccc2ccccc2c1 (single isomer, unassigned) [Compound 132] | 4.4 | 47.31
15 | COc1nc2ccc(Br)cc2cc1C(c1ccccc1)C(O)(CCCN1CCCC1)c1ccc2ccccc2c1 (single isomer, unassigned) [Compound 133] | 5.1 | 59.56
16 | COc1ccc2nc(OC)c(C(c3ccccc3)C(O)(CCN(C)C)c3cccc(F)c3)cc2c1 (single isomer, unassigned) [Compound 134] | 6.5 | 7.52
17 | COc1ccc2nc(OC)c(C(c3ccccc3)C(O)(CCN(C)C)c3cccc(F)c3)cc2c1 (single isomer, unassigned) [Compound 135] | 7.4 | 1.50
18 | CN(C)CCC(O)(c1cccc2ccccc12)C(c1ccccc1)c1cc2cc(Br)ccc2[nH]c1=O (single isomer, unassigned) [Compound 138] | 6.6 | 8.58
19 | COc1nc2ccc(Br)cc2cc1C(c1ccccc1)C(O)(CCN1CCOCC1)c1ccc2ccccc2c1 (single isomer, unassigned) [Compound 139] | 4.1 | 59.76
20 | COc1nc2ccc(Br)cc2cc1C(c1ccccc1)C(O)(CCN1CCOCC1)c1ccc2ccccc2c1 (single isomer, unassigned) [Compound 140] | 5.8 | 59.76

Row | Structure (SMILES) | pIC50 [1] | MIC [2] [microgram/ml]
21 | COc1nc2ccc(Br)cc2cc1C(c1ccccc1)C(O)(CCN(C)C)c1cc(Br)cc2ccccc12 (single isomer, unassigned) [Compound 143] | 6.9 | 50.39
22 | COc1nc2ccc(Br)cc2cc1C(c1ccccc1)C(O)(CCN1CCCC1)c1ccc2ccccc2c1 (single isomer, unassigned) [Compound 144] | 7.0 | 52.46
23 | COc1nc2ccc(Br)cc2cc1C(c1ccccc1)C(O)(CCN1CCN(C)CC1)c1cccc2ccccc12 (single isomer, unassigned) [Compound 149] | 5.1 | 48.50
24 | COc1nc2ccc(Br)cc2cc1C(c1ccccc1)C(O)(CCN(C)C)c1cc(Br)cc2ccccc12 (single isomer, unassigned) [Compound 150] | 5.7 | 63.44
25 | COc1nc2ccc(Br)cc2cc1C(c1ccccc1)C(O)(CCN1CCN(C)CC1)c1cc(Br)cc2ccccc12 (single isomer, unassigned) [Compound 151] | 5.0 | 13.76
26 | COc1nc2ccc(Br)cc2cc1C(c1ccccc1)C(O)(CCN1CCN(C)CC1)c1cc(Br)cc2ccccc12 (single isomer, unassigned) [Compound 152] | 5.8 | 10.93
27 | COc1nc2ccc(Br)cc2cc1C(c1ccccc1)C(O)(CCN1CCN(C)CC1)c1ccc2cc(Br)ccc2c1 (single isomer, unassigned) [Compound 153] | 5.3 | 54.77
28 | COc1nc2ccc(Br)cc2cc1C(c1ccccc1)C(O)(CCN1CCN(C)CC1)c1ccc2cc(Br)ccc2c1 (single isomer, unassigned) [Compound 154] | 4.9 | 68.95
29 | COc1nc2ccc(Br)cc2cc1C(c1ccccc1)C(O)(CCN1CCN(C)CC1)c1cccc2ccccc12 (single isomer, unassigned) [Compound 156] | 5.3 | 9.68
30 | COc1nc2ccc(Br)cc2cc1C(c1ccccc1)C(O)(CCN1CCCC1)c1ccc2cc(Br)ccc2c1 (single isomer, unassigned) [Compound 157] | 5.6 | 52.46
31 | COc1nc2ccc(Br)cc2cc1C(c1ccccc1)C(O)(CCN1CCOCC1)c1cccc2ccccc12 (single isomer, unassigned) [Compound 158] | 5.3 | 59.76
32 | COc1ccc2cc(C(O)(CCN(C)C)C(c3ccccc3)c3cc4cc(Br)ccc4nc3OC)ccc2c1 (single isomer, unassigned) [Compound 162] | 7.0 | 9.28
33 | COc1ccc2cc(C(O)(CCN(C)C)C(c3ccccc3)c3cc4cc(Br)ccc4nc3OC)ccc2c1 (single isomer, unassigned) [Compound 163] | 5.9 | 46.51
34 | COCCOc1nc2ccc(Br)cc2cc1C(c1ccccc1)C(O)(CCN(C)C)c1cccc(F)c1 (single isomer, unassigned) [Compound 164] | 7.9 | 0.36
35 | COCCOc1nc2ccc(Br)cc2cc1C(c1ccccc1)C(O)(CCN(C)C)c1cccc(F)c1 (single isomer, unassigned) [Compound 165] | 6.6 | 2.26
36 | COc1nc2ccc(Br)cc2cc1C(c1ccccc1)C(O)(CCN(C)C)c1c(F)cccc1F (single isomer, unassigned) [Compound 167] | 5.5 | 43.01
37 | COc1nc2ccc(Br)cc2cc1C(c1ccccc1)C(O)(CCn1ccnc1)c1cccc2ccccc12 (single isomer, unassigned) [Compound 173] | 4.7 | 57.85
38 | COc1nc2ccc(-c3ccco3)cc2cc1C(c1ccccc1)C(O)(CCN(C)C)c1cccc(F)c1 (single isomer, unassigned) [Compound 174] | 6.8 | 0.06
39 | COc1nc2ccc(-c3ccco3)cc2cc1C(c1ccccc1)C(O)(CCN(C)C)c1cccc(F)c1 (single isomer, unassigned) [Compound 175] | 6.5 | 10.19
40 | COCCOc1nc2ccc(Br)cc2cc1C(c1ccccc1)C(O)(CCN(C)C)c1cccc2ccccc12 (single isomer, unassigned) [Compound 176] | 6.8 | 9.50
